{"source": "patent US10849906B2", "about": "“Use of Akt2 in diagnosis and treatment of tumor” (priority 2015, dated 2020)", "key": {"[1]": {"tested_on": "CCRF-CEM tumor-bearing mice", "assay": "Glucocorticoid sensitization in CCRF-CEM tumor-bearing nude mice", "format": "in vivo", "protocol": "The overall survival time, tumor size and spleen cell apoptosis of the tumor-bearing mice were measured, and the pathological HE staining was carried out to tumors.\nThe overall survival, tumor size and spleen size of the tumor-bearing mice were measured, the pathological sections of tumor were for HE and Ki-67 staining, and the pathological sections of spleen were for HE, CD3, and TdT staining."}, "[2]": {"tested_on": "Molt4 cells", "assay": "Apoptosis by Annexin V-FITC PI double staining, Molt4", "format": "cell-based, human", "conditions": "compared to the only dexamethasone group; FIG. 2E", "protocol": "(§1) Apoptosis was detected by Annexin V-FITC PI double staining method (flow cytometry kit (FITC, PI double staining), Sangon Biotech (Shanghai) Co., Ltd.)), and the collected cells were washed once with phosphate buffered saline (PBS) (135 mM NaCl, 2.7 mM KCl, 1.5 mM KH2PO4 and 8 mM K2HPO4, pH 7.2); the 4× binding buffer was diluted to a 1× binding buffer with deionized water, then the cells were resuspended with 195 ul of the 1× binding buffer at a cell density of 2-5×10^5/ml; 5 μl of Annexin V-FITC was added to the 195 μl of the cell resuspension and mixed, and incubated in dark at room temperature for 10 minutes; the cells were washed once with 200 μl of the 1× binding buffer, and then resuspended in 190 μl of the 1× binding buffer; 10 μl of propidium iodide (20 μg/ml) was added. A flow cytometry device (Beckman company) was used for detection, and the rate of apoptosis was analyzed using Summit software. […]"}, "[3]": {"tested_on": "SP2/0 cells", "assay": "Apoptosis by Annexin V-FITC PI double staining, SP2/0", "format": "cell-based, mouse", "conditions": "compared to dexamethasone alone; FIG. 2M", "protocol": "as §1"}, "[4]": {"tested_on": "Jurkat cells", "assay": "Apoptosis by Annexin V-FITC PI double staining, Jurkat", "format": "cell-based, human", "conditions": "compared to the only/single dexamethasone group; FIG. 2F, 4J", "protocol": "(§2) Apoptosis was detected by Annexin V-FITC PI double staining method (flow cytometry kit (FITC, PI double staining), Sangon Biotech (Shanghai) Co., Ltd.)), and the collected cells were washed once with phosphate buffered saline (PBS) (135 mM NaCl, 2.7 mM KCl, 1.5 mM KH2PO4 and 8 mM K2HPO4, pH 7.2); the 4× binding buffer was diluted to a 1× binding buffer with deionized water, then the cells were resuspended with 195 ul of the 1× binding buffer at a cell density of 2-5×10^5/ml; 5 μl of Annexin V-FITC was added to the 195 μl of the cell resuspension and mixed, and incubated in dark at room temperature for 10 minutes; the cells were washed once with 200 μl of the 1× binding buffer, and then resuspended in 190 μl of the 1× binding buffer; 10 μl of propidium iodide (20 μg/ml) was added. A flow cytometry device (Beckman company) was used for detection, and the rate of apoptosis was analyzed using Summit software.\n(§3) The cells were cultured in RPMI 1640 complete medium (Gibco company) containing 10% fetal bovine serum (FBS, Gibco company) in an incubator (Thermo company) at 5% CO2 and 37° C. until reaching logarithmic growth phase, then different concentrations of inhibitors and/or dexamethasone/ethanol/DMSO were added to the culture medium, followed by further culturing (for addition of dexamethasone/ethanol/DMSO, for 48 hours, and for addition of inhibitor, for 24 hours), and apoptosis was detected by Annexin V-FITC PI double staining and proteins were detected by Western blot, as described in Example 1.\n(§4) As described in Example 3, the cells were cultured in RPMI 1640 complete medium containing 10% fetal bovine serum under 5% CO2 and 37° C. until reaching logarithmic growth phase, and then dexamethasone and different concentrations of Akt inhibitor were added to the culture medium, followed by further culture (for addition of dexamethasone/DMSO, for 48 hours, and for addition of the inhibitor, for 24 hours), the apoptosis was detected by Annexin V-FITC PI double staining method and proteins were detected by Western blot as described in Example 1 as well as the cell viability was detected by CCK-8 method.\nThe transfected cells were selected and passaged for 3 to 5 passages after resuscitation, with Interferin™ as transfection reagent, and the transfection procedure was performed in accordance with the instruction of the transfection reagent. In short, the cells of logarithmic growth phase were plated at 2×10^5/well, the cells were replaced with fresh complete medium (free of antibiotics) during transfection, siRNA was diluted with Opti-MEM and added with an appropriate amount of […]in™ and mixed, incubated at room temperature for 10 minutes prior to being added dropwise to the cells, and the cells were harvested at appropriate time. The cells were transfected with green fluorescein-labeled siRNA (FAM-siRNA) (siRNA at a final concentration of 20 μM, 1.25 μl/well), and the transfection efficiency was observed using a fluorescence microscope 24 hours later. The dexamethasone group was added 24 hours after transfection, followed by culture for further 24 hours, and then the cells were collected for observation; and the equal amount of anhydrous ethanol was added to the control group."}, "[5]": {"tested_on": "Akt/FoxO3a/Bim signaling pathway in CCRF-CEM cells", "assay": "Western blot of Akt/FoxO3a/Bim signaling pathway proteins in CCRF-CEM cells", "format": "cell-based, human", "protocol": "(§5) The control group was not added with any reagents. All experiments were performed in triplicate.\nProtein detection by Western blot: in the examples of the present invention, Akt antibody (rabbit derived), phosphorylated Akt antibody (rabbit derived), FoxO3a antibody (rabbit derived), phosphorylated FoxO3a antibody (rabbit derived) and GAPDH antibody (rabbit derived) and secondary antibodies were all purchased from CST company. The cells were collected in a centrifuge tube and centrifuged at 1000 rpm, the supernatant was discarded and the cells were washed twice with PBS pre-cold at 4° C.; cell lysis buffer (150 mM NaCl, 1% NP-40, 0.1% SDS, 2 μg/ml Aprotinin, 2 μg/ml Leupeptin, 1 mM PMSF, 1.5 mM EDTA, 1 mM sodium vanadate) was added and the cells were lysed on ice for 40 minutes, the cell lysate was centrifuged at 20000 rpm, 4° C. for 15 minutes, and the supernatant was collected; a protein loading buffer for sodium dodecyl sulfate polyacrylamide (SDS-PAGE) gel electrophoresis (1.25 mL 1MTris-HCl (pH6.8), 0.5 g SDS, 25 mg BPB, 2.5 mL glycerol, 5 mL deionized water) was added, followed by boiling for 5 minutes to denature proteins; the loading buffer containing denatured proteins was applied to 10% SDS-PAGE for electrophoresis at 120 V, and then transferred to a PVDF membrane (Sangon Biotech (Shanghai) Co., Ltd.) at 130 V for 1.5 hours; after the membrane transfer was completed, the PVDF membrane was immediately rinsed with a Western washing solution (150 mmol/L NaCl, 50 mmol/L Tris-HCl (pH 7.5)) for 1-2 minutes; added with 5% non-fat milk powder (Shanghai Biotechnology Co., Ltd.), agitated gently and then blocked at room temperature for 60 minutes; a primary antibody diluted appropriately with 5% non-fat milk powder was added, and incubated overnight at room temperature with gentle agitating; the primary antibody was recovered and the membrane was washed three times with the washing solution for 5-10 minutes each; a horseradish peroxidase-labeled secondary antibody diluted appropriately with the Western washing solution was added, and incubated at room temperature for 1 hour with gentle agitating; the secondary antibody was recovered and the membrane was washed three times with the Western washing solution for 5-10 minutes each. An appropriate amount of developing solution (DAB 4 mg, 30% hydrogen peroxide 15 μL, 0.01 M Tris-Cl (pH 7.5) 5 mL) was dropped on the PVDF membrane, the image was detected using a bioluminescence image colorimeter and a gel imaging system (Thermo company), and the quantitative analysis of bands was performed using Image Lab software.\nas §3\nMethods: CCRF-CEM cells were cultured in RPMI 1640 complete medium (Gibco company) containing 10% fetal bovine serum (FBS, Gibco company) in an incubator (Thermo company) at 5% CO2 and 37° C. until reaching logarithmic growth phase, then DMSO, dexamethasone and different inhibitors (DMSO: 0.1%, dexamethasone: 0.1 μM, inhibitors: 0.8 μM) were added to the culture medium, and further cultured (for addition of dexamethasone or DMSO, for 48 hours, and for addition of inhibitors, for 24 hours), and the proteins were detected by Western blot, as described in Example 1."}, "[6]": {"tested_on": "Raji cells", "assay": "Apoptosis by Annexin V-FITC PI double staining, Raji", "format": "cell-based, human", "conditions": "compared to dexamethasone alone; FIG. 2K, 2N", "protocol": "as §1"}, "[7]": {"tested_on": "CCRF-CEM cells", "assay": "Apoptosis by Annexin V-FITC PI double staining (flow cytometry), CCRF-CEM", "format": "cell-based, human", "protocol": "as §5, §2, §3, §4"}, "[8]": {"conditions": "mouse, in vivo"}, "[9]": {"tested_on": "Daudi cells", "assay": "Cell viability by CCK-8 and combination index, Daudi", "format": "cell-based, human", "conditions": "B lymphoma cells; as shown in Table 1", "protocol": "as §4\nThe inhibitory effect of two drugs (dexamethasone and an inhibitor) alone and in combination on various lymphocyte lines was observed by CCK-8 method (CCK-8 kit), and then the half-inhibitory concentration of each drug was calculated using the median effect equation, and the combination index (CI) of the two drugs used in combination was calculated using CompuSyn software.\n(1) the lymphocytes of logarithmic growth phase were taken and made to a cell suspension of 5×10^4/mL, a blank control group (5 wells), a dexamethasone group (3 wells for each concentration, triplicates), a single inhibitor group (3 wells for each concentration, triplicates), a dexamethasone plus inhibitor group (3 wells for each combined concentration, triplicates) were prepared, 180 μL of the suspension was seeded to each well of a 96-well plate, and incubated for 24 hours in an incubator at 5% CO2 and 37° C.\nBased on the drug resistance of cells, the ratio of two drugs was fixed. The dexamethasone group was cultured for 48 hours while the inhibitor group was cultured for 24 hours.\n(3) 10 μl of CCK-8 was added to each well, and cultured for 2 hours, and the optical density (OD) was measured at 450 nm using an automatic microplate reader, and the proliferation inhibition rate of the drug on cell was calculated.\n(4) the proliferation inhibition rate was calculated according to the following equation: cell proliferation inhibition rate=(1-average OD value in the test group/average OD value in the control group)×100%, and the effect of interaction between the two drugs was analyzed by Chou-Talalay combination index method."}, "[10]": {"tested_on": "Daudi cells", "assay": "Apoptosis by Annexin V-FITC PI double staining, Daudi", "format": "cell-based, human", "conditions": "compared to the dexamethasone group; FIG. 2K, 4L", "protocol": "as §2\nas §3, with “1. […]” for “1.”"}, "[11]": {"assay": "Toxicity in tumor-bearing nude mice (peripheral blood test, organ pathology)"}, "[12]": {"tested_on": "L-02 human-derived healthy liver cell line", "assay": "CCK-8 viability of healthy liver cells L-02", "conditions": "FIG. 6A"}, "[13]": {"tested_on": "L-02 human-derived healthy liver cell line"}, "[14]": {"conditions": "CCRF-CEM, inhibitors 0.8 μM, FIG. 5A"}}}
{"smiles": "CC[n+]1c(/C=C/N(C)c2ccccc2)n(-c2ccccc2)c2ccc(-c3nc4ccccc4s3)cc21.[I-]", "note": "[Akt IV]", "values": [{"measurement": "size of subcutaneous tumor", "setting": "[1]; Akt inhibitor 1.25 μg/mouse plus dexamethasone 0.1 mg/mouse i.p. once daily 7 days, vs single dexamethasone group, FIG. 3A, 3B", "value": "synergized with dexamethasone to reduce the size of subcutaneous tumor"}, {"measurement": "overall survival of tumor-bearing mice", "setting": "[1]; Akt inhibitor in combination with dexamethasone vs single dexamethasone group, FIG. 3D", "value": "significantly increased"}, {"measurement": "apoptosis of spleen lymphocytes in the tumor-bearing mice", "setting": "[1]; Akt inhibitor plus dexamethasone vs single dexamethasone group, FIG. 3E", "value": "significantly increased"}, {"measurement": "apoptosis rate of Molt4 cells, inhibitor in combination with dexamethasone", "setting": "[2]", "value": "significantly increased"}, {"measurement": "apoptosis of SP2/0 cells, inhibitor in combination with dexamethasone", "setting": "[3]", "value": "significantly increased"}, {"measurement": "apoptosis of Jurkat cells, inhibitor in combination with dexamethasone", "setting": "[4]", "value": "significantly increased"}, {"measurement": "expression of pro-apoptosis factor Bim, inhibitor plus dexamethasone", "setting": "[5]; compared to the only dexamethasone group, FIG. 2B, 2H", "value": "up-regulated"}, {"measurement": "expression of phosphorylated FoxO3a, inhibitor plus dexamethasone", "setting": "[5]; compared to the only dexamethasone group, FIG. 2B, 2H, 2I", "value": "significantly down-regulated"}, {"measurement": "apoptosis of Raji cells, inhibitor in combination with dexamethasone", "setting": "[6]", "value": "significantly increased"}, {"measurement": "sensitization effect to glucocorticoids compared with other cell proliferation pathway inhibitors", "setting": "[7]; CCRF-CEM, in combination with dexamethasone, FIG. 2L", "value": "strongest effect of inducing apoptosis in combination with dexamethasone"}, {"measurement": "apoptosis rate of CCRF-CEM cells, different concentrations of Akt inhibitor in combination with dexamethasone", "setting": "[7]; FIG. 2C", "value": "increased along with the increased concentration of the Akt inhibitor"}, {"measurement": "apoptosis of CCRF-CEM cells induced by dexamethasone, inhibitor plus dexamethasone", "setting": "[7]; compared to dexamethasone alone, FIG. 2A: Akt inhibitor 1 μM, dexamethasone 1 μM, LY294002 30 μM, FIG. 2G, 2J, 2K", "value": "significantly increased"}, {"measurement": "liver toxicity", "setting": "[8]", "value": "obvious liver toxicity"}]}
{"smiles": "O=c1[nH]c2ccccc2n1C1CCN(Cc2ccc(-c3nc4cc5nc[nH]c5cc4nc3-c3ccccc3)cc2)CC1", "note": "[Akti-1/2]", "values": [{"measurement": "effect of inhibitor in combination with dexamethasone in B lymphoma cells (in words)", "setting": "[9]", "value": "moderate synergistic effect"}, {"measurement": "apoptosis of Daudi cells, inhibitor in combination with dexamethasone", "setting": "[10]", "value": "significantly increase"}, {"measurement": "apoptosis of Jurkat cells, inhibitor in combination with dexamethasone", "setting": "[4]", "value": "significantly increase"}, {"measurement": "expression of p-Akt1", "setting": "[5]; [14]", "value": "reduced"}, {"measurement": "expression of p-Akt2", "setting": "[5]; [14]", "value": "reduced"}, {"measurement": "liver pathology (HE staining)", "setting": "[11]; 7-day administration, FIG. 8A, 8B", "value": "did not cause morphological changes of the liver tissues"}, {"measurement": "level of TBIL", "setting": "[11]; compared to the NC group, FIG. 6I", "value": "significantly increased"}, {"measurement": "level of peripheral blood AST", "setting": "[11]; compared to the normal saline group (NC), FIG. 3F, 6H", "value": "significantly increased"}, {"measurement": "level of peripheral blood ALT", "setting": "[11]; compared to the normal saline group (NC), i.p. 7 days, FIG. 3F, 6G", "value": "significantly increased"}, {"measurement": "damage to liver cells", "setting": "[12]; DEX 0.1 μM, inhibitors 0.8 μM", "value": "certain damage"}, {"measurement": "liver cell activity", "setting": "[12]; after 12 hours of administration", "value": 50.5, "unit": "%"}, {"measurement": "recovery of liver cell activity", "setting": "[13]", "value": "gradually recovered after 24 hours of administration"}]}
